Assay results as given in PubChem BioAssay (NCI).
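Growth conditions: 96-well plates. Treatment: test compound, 48 hours, 5 concentrations. Analysis: linear interpolation between bracketing concentrations; unreached endpoints set to highest concentration. The concentration for full growth arrest is given as TGI.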

Key:
Assay in all cases: NCI tumour cell line growth inhibition, 48 h
SF-295 CNS = system: SF-295 CNS
DMS 114 small cell lung = system: DMS 114 small cell lung
CCRF-CEM leukemia = system: CCRF-CEM leukemia
HT29 colon = system: HT29 colon
DLD-1 colon = system: DLD-1 colon
HCC-2998 colon = system: HCC-2998 colon
KM12 colon = system: KM12 colon
MALME-3M melanoma = system: MALME-3M melanoma
HCT-15 colon = system: HCT-15 colon
M19-MEL melanoma = system: M19-MEL melanoma
COLO 205 colon = system: COLO 205 colon
ACHN renal = system: ACHN renal
NCI-H226 lung = system: NCI-H226 lung
U251 CNS = system: U251 CNS
SF-539 CNS = system: SF-539 CNS
HL-60(TB) leukemia = system: HL-60(TB) leukemia
786-0 renal = system: 786-0 renal
RPMI-8226 leukemia = system: RPMI-8226 leukemia
OVCAR-4 ovarian = system: OVCAR-4 ovarian
DMS 273 small cell lung = system: DMS 273 small cell lung
SK-MEL-28 melanoma = system: SK-MEL-28 melanoma
HOP-62 NSCLC = system: HOP-62 NSCLC
IGROV1 ovarian = system: IGROV1 ovarian
SF-268 CNS = system: SF-268 CNS
MOLT-4 leukemia = system: MOLT-4 leukemia
LXFL 529 NSCLC = system: LXFL 529 NSCLC
SNB-78 CNS = system: SNB-78 CNS
SK-OV-3 ovarian = system: SK-OV-3 ovarian
OVCAR-3 ovarian = system: OVCAR-3 ovarian
SN12C renal = system: SN12C renal
NCI-H23 lung = system: NCI-H23 lung
EKVX NSCLC = system: EKVX NSCLC
UO-31 renal = system: UO-31 renal
M14 melanoma = system: M14 melanoma
SK-MEL-2 melanoma = system: SK-MEL-2 melanoma
HOP-18 NSCLC = system: HOP-18 NSCLC
UACC-257 melanoma = system: UACC-257 melanoma
K-562 leukemia = system: K-562 leukemia
HOP-92 NSCLC = system: HOP-92 NSCLC
NCI-H460 lung = system: NCI-H460 lung
A549 NSCLC = system: A549 NSCLC
HCT-116 colon = system: HCT-116 colon
NCI-H522 lung = system: NCI-H522 lung
SNB-75 CNS = system: SNB-75 CNS
XF 498 CNS = system: XF 498 CNS
TK-10 renal = system: TK-10 renal
OVCAR-8 ovarian = system: OVCAR-8 ovarian
OVCAR-5 ovarian = system: OVCAR-5 ovarian
CAKI-1 renal = system: CAKI-1 renal
RXF 393 renal = system: RXF 393 renal
SK-MEL-5 melanoma = system: SK-MEL-5 melanoma
RXF-631 renal = system: RXF-631 renal
SNB-19 CNS = system: SNB-19 CNS
KM20L2 colon = system: KM20L2 colon
UACC-62 melanoma = system: UACC-62 melanoma
SW-620 colon = system: SW-620 colon
LOX IMVI melanoma = system: LOX IMVI melanoma

CCn1c2ccccc2c2ccc3c(c21)C(=O)C=CC3=O
TGI (SF-295 CNS): 44.5 µM | TGI (DMS 114 small cell lung): 21.7 µM | TGI (CCRF-CEM leukemia): > 100 µM | TGI (HT29 colon): 42.1 µM | TGI (DLD-1 colon): 14.9 µM | TGI (HCC-2998 colon): 38.5 µM | TGI (KM12 colon): 27.4 µM | TGI (MALME-3M melanoma): 22 µM | TGI (HCT-15 colon): 25.7 µM | TGI (M19-MEL melanoma): 25.8 µM | TGI (COLO 205 colon): 24.1 µM | TGI (ACHN renal): 30.2 µM | TGI (NCI-H226 lung): 32.8 µM | TGI (U251 CNS): 31.7 µM | TGI (SF-539 CNS): 44 µM | TGI (HL-60(TB) leukemia): 12.9 µM | TGI (786-0 renal): 3.3 µM | TGI (RPMI-8226 leukemia): > 100 µM | TGI (OVCAR-4 ovarian): 14.2 µM | TGI (DMS 273 small cell lung): 33.8 µM | TGI (SK-MEL-28 melanoma): 33.3 µM | TGI (HOP-62 NSCLC): 40 µM | TGI (IGROV1 ovarian): 14.8 µM | TGI (SF-268 CNS): 40 µM | TGI (MOLT-4 leukemia): 17.2 µM | TGI (LXFL 529 NSCLC): 3.56 µM | TGI (SNB-78 CNS): 57.5 µM | TGI (SK-OV-3 ovarian): 34 µM | TGI (OVCAR-3 ovarian): 26.6 µM | TGI (SN12C renal): 33.5 µM | TGI (NCI-H23 lung): 51.1 µM | TGI (EKVX NSCLC): 30 µM | TGI (UO-31 renal): 21.6 µM | TGI (M14 melanoma): 14.9 µM | TGI (SK-MEL-2 melanoma): 44 µM | TGI (HOP-18 NSCLC): 23.2 µM | TGI (UACC-257 melanoma): 27.7 µM | TGI (K-562 leukemia): 9.19 µM | TGI (HOP-92 NSCLC): 30.3 µM | TGI (NCI-H460 lung): 45.5 µM | TGI (A549 NSCLC): > 100 µM | TGI (HCT-116 colon): 15.4 µM | TGI (NCI-H522 lung): 4.52 µM | TGI (SNB-75 CNS): 63.3 µM | TGI (XF 498 CNS): 12.9 µM | TGI (TK-10 renal): 30 µM | TGI (OVCAR-8 ovarian): 29 µM | TGI (OVCAR-5 ovarian): 44.1 µM

CCOC(=O)C1C(=S)NC(=O)C1C#N (stereo unspecified)
TGI (SF-295 CNS): > 100 µM | TGI (DMS 114 small cell lung): > 100 µM | TGI (CCRF-CEM leukemia): > 100 µM | TGI (HT29 colon): > 100 µM | TGI (DLD-1 colon): > 100 µM | TGI (HCC-2998 colon): > 100 µM | TGI (KM12 colon): > 100 µM | TGI (MALME-3M melanoma): > 100 µM | TGI (HCT-15 colon): > 100 µM | TGI (M19-MEL melanoma): > 100 µM | TGI (COLO 205 colon): > 100 µM | TGI (CAKI-1 renal): > 100 µM | TGI (ACHN renal): > 100 µM | TGI (U251 CNS): > 100 µM | TGI (RXF 393 renal): > 100 µM | TGI (SK-MEL-5 melanoma): > 100 µM | TGI (SF-539 CNS): > 100 µM | TGI (HL-60(TB) leukemia): > 100 µM | TGI (786-0 renal): > 100 µM | TGI (RPMI-8226 leukemia): > 100 µM | TGI (OVCAR-4 ovarian): > 100 µM | TGI (DMS 273 small cell lung): > 100 µM | TGI (SK-MEL-28 melanoma): > 100 µM | TGI (HOP-62 NSCLC): > 100 µM | TGI (IGROV1 ovarian): > 100 µM | TGI (SF-268 CNS): > 100 µM | TGI (RXF-631 renal): > 100 µM | TGI (MOLT-4 leukemia): > 100 µM | TGI (LXFL 529 NSCLC): > 100 µM | TGI (SK-OV-3 ovarian): > 100 µM | TGI (OVCAR-3 ovarian): > 100 µM | TGI (SN12C renal): > 100 µM | TGI (SNB-19 CNS): > 100 µM | TGI (NCI-H23 lung): > 100 µM | TGI (KM20L2 colon): > 100 µM | TGI (EKVX NSCLC): > 100 µM | TGI (UO-31 renal): > 100 µM | TGI (UACC-62 melanoma): > 100 µM | TGI (M14 melanoma): > 100 µM | TGI (SK-MEL-2 melanoma): > 100 µM | TGI (HOP-18 NSCLC): > 100 µM | TGI (UACC-257 melanoma): > 100 µM | TGI (K-562 leukemia): > 100 µM | TGI (HOP-92 NSCLC): > 100 µM | TGI (NCI-H460 lung): > 100 µM | TGI (A549 NSCLC): > 100 µM | TGI (NCI-H522 lung): > 100 µM | TGI (SNB-75 CNS): > 100 µM | TGI (SW-620 colon): > 100 µM | TGI (LOX IMVI melanoma): > 100 µM | TGI (TK-10 renal): > 100 µM | TGI (OVCAR-8 ovarian): > 100 µM | TGI (OVCAR-5 ovarian): > 100 µM
